# Patent US7449495B2, “Retinoid derivatives with antiangiogenic, antitumoral and proapoptotic activities” (Sigma-Tau Industrie Farmaceutiche Riunite S.p.A., priority 2001, dated 2008)
# Several values for one entry are separate records, joined by “and”; a condition that tells them apart may be missing. Equal entries are not always repeated.
# What was measured:
# [1] = system: human no small cell lung carcinoma NCI-H460; test: Antitumoral activity in human no small cell lung carcinoma model NCI-H460; assay type: in vivo; settings: NCI-H460, 15 mg/kg ip, q7dx3
# Method: The ST1926 solution was prepared immediately before use and solubilised in cremophor:ethanol 1:1 and subsequently diluted 1:4 in buffered saline solution. The animal treatments were administered in a volume of 10 ml/kg. […] Measurements of tumor dimensions were performed using a digital calliper (Vernier Caliper) twice weekly, from the time in which the mass was measurable. The tumor mass was evaluated from the size of the two principal dimensions (length and breadth), expressed in mm, applying the formula (length×breadth^2)/2, that is, the tumor volume in mm3. For each experimental group, the percentage of tumor volume inhibition was calculated (TVI %), with respect to the control, namely (100−(T/C %). TVI was evaluated 2 days after the final administration of ST1926.
# A comparison between the TVI values obtained for each group was performed using the non parametric Mann Whitney test for non-paired data, using the Instat software from GraphPad inc.
# [2] = system: NB4 acute promyelocytic leukaemia cell line; test: Cytotoxicity test (sulphorodamine B), NB4; assay type: cell-based, human; settings: Homo sapiens, 24 h incubation, survival 48 h after removal, read-out: IC50 ± SD
# Description: To carry out the cytotoxicity tests, two acute promyelocytic leukaemia (APL) cell lines were used. • 1. Cell line NB4, carrying the chromosomal translocation t(15; 17) which generates the fusion protein PML/RARα. This cell line is extremely sensitive to the differentiating action of pharmaceutical doses of ATRA (10^−7-10^−6 M); • 2. Cell line HL60, which responds to ATRA less sensitively with respect to cell line NB4.
# These cell lines were maintained in RPMI 1640 containing 10% foetal calf serum (FCS) and 1% glutamine.
# The cytotoxicity tests were carried out using NB4 or HL-60 cells in suspension (10000/well). The cells were seeded in a volume of 250 μl in 96 well plates and incubated for 24 hours at 37° C. The following day, test compound ST 1926 [(2E)-3-[3′-(1-Adamantyl)-4′-hydroxy[1,1′-biphenyl]-4-yl]-2-propenoate/ic acid] was added at increasing concentrations, and the cells were incubated for a further 24 hours at 37° C. in a humidified atmosphere containing 5% CO2. On the 3rd day, the medium was removed by centrifuging the plate at 1600×g for 10 min and the supernatant decanted. 250 μl of PBS were added; then the plates were centrifuged again at 1600×g for 10 minutes and the supernatant decanted. 200 μl/well of RPMI 1640 medium containing 10% FCS were added and the plates were incubated at 37° C. for a further 48 hours. On the 5th day, the plates were again centrifuged at 1600×g for 10 minutes, and the medium was removed by upturning the plates, 200 μl of PBS and 50 μl of cold, 80% TCA were added. The plates were then left to incubate on ice for at least 1 hour. The TCA was removed by upturning; the plates were washed three times by immersion in distilled water and dried first on paper, then with a jet of hot air. To all wells were added 200 μl of 0.4% sulphorodamine B in 1% acetic acid. The plates were incubated at room temperature for a further 30 minutes. […] The optical density was measured using a Multiskan spectrophotometer at 540 nm.
# (§1) Cell survival was determined by incubation with ST1926 for 24 hours, 48 hours after the removal of the compound. […]
# [3] = system: Human prostate carcinoma PC3; test: Cytotoxicity test (sulphorodamine B), PC3; assay type: cell-based; settings: 24 h incubation, survival 48 h after removal, read-out: IC50 ± SD
# Description: (§2) Different cell lines deriving from solid tumors were also used. • 1. Human prostate carcinoma PC3 and DU145. These cell lines were maintained in RPMI 1640 medium containing 10% FCS, 1% sodium pyruvate and 1% glutamine; • 2. Human colon adenocarcinoma LoVo. This cell line was maintained in HAM's F-12 medium, containing 10% FCS and 1% glutamine. • 3. Human ovarian carcinoma such as A2780 and A2780/Dx, sensitive and resistant to drugs, respectively (doxorubicin, taxol, etoposide, vincristine); IGROV-1 and IGROV-1/Pt, sensitive and resistant to platinum-based chemotherapy, respectively, were maintained in RPMI 1640 medium containing 10% FCS, 1% sodium pyruvate and 1% glutamine; • 4. Human melanoma MeWo and MeS 2.21, glioblastoma GBM, no small cell lung carcinomas A431, NCI—H460, osteosarcomas SAOS and U2OS were maintained in RPMI 1640 medium containing 10% FCS, 1% sodium pyruvate and 1% glutamine.
# (§3) The cytotoxicity tests were carried out using NB4 or HL-60 cells in suspension (10000/well). The cells were seeded in a volume of 250 μl in 96 well plates and incubated for 24 hours at 37° C. […] The optical density was measured using a Multiskan spectrophotometer at 540 nm. […]
# as §1
# [4] = system: Human colon adenocarcinoma LoVo; test: Cytotoxicity test (sulphorodamine B), LoVo; assay type: cell-based; settings: 24 h incubation, survival 48 h after removal, read-out: IC50 ± SD
# Description: as §2, §3, §1
# NB4 cells = test: Pro-differentiating effect on NB4 cells (NBT); assay type: cell-based; settings: Homo sapiens, NB-4, 72 h, NB4, three days, read-out: AC50 (activating concentration for 50% cellular differentiation) ± SD
# Method: NB4 cells were plated at a density of 150000 cells/ml in RPMI 1640 medium containing 10% foetal serum. The cells were then treated with ST1879 or ST1898 at decreasing concentrations starting from 0.4 μM to 0.01 μM and placed in an incubator for three days without any change of the media. To measure the differentiating effect 500000 cells from each sample were collected, centrifuged and resuspended in 1 ml of RPMI 1640 medium containing 10% serum, 1 mg/ml nitroblue tetrazolium (NBT) and 100 ng of PMA (phorbol myristyl acetate). The cells, resuspended as above, were incubated at 37° C. for 60 minutes. At the conclusion of incubation the cells were centrifuged and the precipitate resuspended in 1 ml of PBS containing 10% Triton ×100. The samples were sonicated until lysed and then read by spectrophotometer at a wavelength of 540 nm. Samples containing differentiated cells turn a purplish colour whilst the control samples and/or these with non differentiated cells remain white or much less intensely coloured. The pro-differentiating action of ST1879 or of ST1898 has been evaluated in terms of AC50 (activating concentration for 50% cellular differentiation) as reported below.
# [5] = system: chicken chorioallantoic membrane vessels, bFGF induced; test: Angiostatic activity in chicken chorioallantoic membrane (CAM) model; assay type: in vivo; settings: for 12th day (72 hours), number of vessels per sponge / Δvessels: mean ± SE
# Description: The chicken chorioallantoic membrane is a very vascularised membrane in which the vessels make their appearance at the 4th day of development, develop an arteriovenal system by the 8th day of development, and actively proliferate until the 11th day.
# The aim of the study was to follow vasal development in the CAM under basal conditions and in the presence of an inducer bFGF (basic Fibroblast Growth Factor) of vasoproliferation. This study used chicken embryonal eggs at the initial stage of their development. On the 3rd day of development an operation to open the shells was performed to make the vessels of the CAM visible. The treatment was administered on the 9th day of development by applying a fragment of sterile gelatine (GELFOAM Pharmacia-Upjohn) about 1 mm^3, to the CAM surface, onto which was administered the bFGF (50 ng/embryo) or the products in question, for 3 consecutive days.
# The evaluation of the effect of the molecule on vasoproliferation was obtained by a comparison of the vessels at the time of zero treatment with these of later times (12th day).
# [6] = system: human microvascular endothelial (HMVE) cells; settings: after 96 h of treatment, cited from earlier work; for inhibition (%) at 0.5 μM: relative to vehicle alone control; for IC50: highest concentration evaluated 0.5 μM, read-out: IC50 (concentration inhibiting proliferation by 50%)
# [7] = bFGF 0.05 + compound 0.25 μg/embryo
compound,measurement,setting,value
"CC(=O)O[C@H]1C(=O)[C@@]2(C)[C@H]([C@H](OC(=O)c3ccccc3)[C@]3(O)C[C@H](OC(=O)[C@H](O)[C@@H](NC(=O)c4ccccc4)c4ccccc4)C(C)=C1C3(C)C)[C@]1(OC(C)=O)CO[C@@H]1C[C@@H]2O [Taxol, reference compound]",BWL % Max,[1],4%
same,Lethality,[1],0/8
same,TVI % ± SE,[1],0%
"COc1ccc(-c2ccc(/C=C/C(=O)O)cc2)cc1C12CC3CC(CC(C3)C1)C2 [ST1898, E-4-(3-(1-adamantyl)-4-methoxyphenyl)cinnamic acid]",IC50,[2],8.8 ± 0.6 µM
same,IC50,[3],1700 ± 200 nM
same,IC50,[4],380 ± 20 nM
same,AC50,NB4 cells,19 nM
same,"Δvessels, change vs bFGF alone",[5]; [7],(−71%)
same,"12th day (72 hours), number of vessels per sponge",[5]; [7],10 ± 1 vessels per sponge
same,Δvessels,[5]; [7],7 ± 1 vessels per sponge
"bFGF: basic Fibroblast Growth Factor, inducer of vasoproliferation in the CAM model [reference compound]","12th day (72 hours), number of vessels per sponge",[5]; bFGF 0.05 μg/embryo alone,28 ± 2 vessels per sponge and 19 ± 1 vessels per sponge and 22 ± 1 vessels per sponge
same,Δvessels,[5]; bFGF 0.05 μg/embryo alone,24 ± 1 vessels per sponge and 15 ± 1 vessels per sponge and 19 ± 1 vessels per sponge
"CC1=C(/C=C/C(C)=C/C=C/C(C)=C/C(=O)O)C(C)(C)CCC1 [trans-RA (7), trans-Retinoic Acid]",inhibition (%) at 0.5 μM,[6],10%
same,IC50,[6],> 500 nM
O=C(O)c1ccc2c(Cl)c(-c3ccc(O)c(C45CC6CC(CC(C6)C4)C5)c3)ccc2c1 [5-Cl-AHPN (2)],inhibition (%) at 0.5 μM,[6],45%
O=C(O)/C=C/c1ccc(-c2ccc(O)c(C34CC5CC(CC(C5)C3)C4)c2)c(Cl)c1 [3-Cl-AHPC (5)],inhibition (%) at 0.5 μM,[6],60%
same,IC50,[6],300 nM
"COc1ccc(-c2ccc(/C=C/CO)cc2)cc1C12CC3CC(CC(C3)C1)C2 [Example 7, E-4-(3-(1-adamantyl)-4-methoxyphenyl)cinnamyl alcohol]",melting point,,148 °C
